Results: patent US8575116B1, “Polyacetylenic compounds for protecting against pancreatic islet atrophy” (Academia Sinica, priority 2010, dated 2013)

Tests used:
STZ-treated C57BL mice = assay: Insulin sensitizer test: oral dose before insulin injection in STZ-treated C57BL mice; assay type: in vivo, mouse; settings: cytopiloyne 0.5 and 2.5, glimepiride 2.5, metformin 60 mgkg^−1 oral; insulin 2.5 IUkg^−1
Procedure: FIGS. 3A-C show cytopiloyne-mediated insulin release depends on pancreatic islet cells. (A) Rat pancreatic islet cells were incubated with glucose-free KRB buffer containing vehicle or cytopiloyne at 1.5, 3, 7, 14, 28 and 42 μM (FIG. 3A-i). Similarly, rat pancreatic islet cells were incubated with KRB buffer containing vehicle, glimepiride (GLM, 10 μM) or cytopiloyne at 1.5, 3, 7, 14, 28 and 42 μM in the presence of 3.3 mM glucose (LG, FIG. 3A-ii) or 16.7 mM glucose (HG, FIG. 3A-iii). The insulin levels were determined using an insulin ELISA kit. The data presented as mean±SEM of 3 independent experiments. (B) Fed C57BL mice, which had already received an injection of STZ, were administered with an oral dose of vehicle, cytopiloyne (CP, 0.1, 0.5 and 2.5 mgkg^−1), and an intraperitoneal injection of insulin (Ins, 2.5 IUkg^−1). Blood sugar levels in the STZ-treated mice were determined using a glucometer. (C) C57BL mice, which had already received STZ, were orally administered with a single dose of vehicle, cytopiloyne (CP, 0.5 and 2.5 mgkg^−1), glimepiride (GLM, 2.5 mgkg^−1), or metformin (60 mgkg^−1), followed by an intraperitoneal injection with insulin (Ins). Blood sugar levels in the STZ-treated mice were determined using a glucometer. All the results from 3 independent experiments are expressed as mean±SEM, and P<0.05 was considered to be statistically significant (*). The number of mice (n) is indicated in parentheses.
To deplete pancreatic β-cells in mice, 6-week-old C57BL females (NLAC, Taipei, Taiwan) were intraperitoneally injected with STZ at 200 mgkg^−1. STZ-treated females with postprandial blood sugar over 500 mgdl^−1 were grouped. […] Blood glucose levels were monitored for 4 h. To distinguish sensitizer activity from releaser activity of cytopiloyne, STZ-treated C57BL mice were tube-fed with vehicle, glimepiride (2.5 mgkg^−1), metformin (60 mgkg^−1) or cytopiloyne (0.5 and 2.5 mgkg^−1) 1 h before insulin injection (2.5 IUkg^−1). Blood glucose levels in the mice were monitored from 0 to 4 h after insulin injection.

[1] = system: adipocyte protein 2 (aP2); assay: Real-time RT-PCR of aP2 mRNA relative to GAPDH in 3T3-L1 cells; assay type: cell-based, mouse
adiponectin = assay: Real-time RT-PCR of adiponectin mRNA relative to GAPDH in 3T3-L1 cells; assay type: cell-based, mouse
[2] = system: pancreatic islets of db/db mice; assay: Pancreatic islet histology/immunohistochemistry in db/db mice; assay type: in vivo, mouse; settings: for pancreatic islet structure after long-term treatment: db/db mice 12 to 14 weeks old, cytopiloyne 0.5 and 2.5, glimepiride 2.5 mgkg^−1 day^−1 (FIG. 1F)
Procedure: FIGS. 1A-F show the anti-diabetic effects of cytopiloyne in db/db mice during long-term treatment. (A) Chemical structure of cytopiloyne (2-β-D-glucopyranosyloxy-1-hydroxytrideca-5,7,9,11-tetrayne). (B) Four groups of 6-to-8-week-old diabetic db/db mice were tube-fed with vehicle, cytopiloyne (CP, 0.5 and 2.5 mgkg^−1 day^−1) or glimepiride (GLM, 2.5 mgkg^−1 day^−1) from 0 to 42 days post-treatment. Blood glucose (BG) levels in these mice were measured. (C) Blood insulin levels from the mice of FIG. 1B. (D) IPGTT was performed in the db/db mice of FIG. 1B on day 0, 28 and 42, and blood glucose levels were monitored for 3.5 h. (E) The percentage of glycosylated HbAlc of whole blood from the mice of FIG. 1B on day 0 and 42. (F) Pancreata of 8- and 16-week-old db/db males, which had received the same treatment as FIG. 1B for 2 (images a-h) and 10 (images i-p) weeks, were stained with hematoxylin and eosin (H&E, images a, c, e, g, i, k, m and o) or hematoxylin and anti-insulin (H&I, images b, d, f, h, j, l, n and p). The arrowheads indicate pancreatic islets. Scale bars, 200 μm. Results from 3 independent experiments are expressed as mean±SEM, and P<0.05 was considered to be statistically significant (*). The number of mice (n) is indicated in parentheses.
Pancreata from db/db males with continuous drug administration were snap frozen in OCT™ compound and stained with hematoxylin and eosin or anti-insulin antibody, followed by diaminobenzidine tetrahydrochloride development. Multiple parallel sections of each pancreas were analyzed by light microscopy.

[3] = system: insulin mRNA in rat primary pancreatic islet cells; assay: Real-time RT-PCR of insulin mRNA relative to L13 in rat pancreatic islet cells; assay type: cell-based
RIN-m5F cells = assay: DAG and cholesterol generation (3H-myristic acid, TLC) in RIN-m5F cells; assay type: cell-based, rat; settings: for level of DAG: versus vehicle control, glucose 16.7 mM
Procedure: FIGS. 5A-D show the effects of cytopiloyne on calcium mobilization, DAG generation and PKCa activation. (A) After Fura 2-AM loading, RIN-m5F cells were stimulated with 16.7 mM glucose (HG) and cytopiloyne at 7, 14 and 28 μM. Level of intracellular calcium, as shown by the 340/380 nm ratio, was detected using a fluorescence spectrophotometer. (B) RIN-m5F cells were pulsed with ^3H-myristic acid (5 Cim1^−1) for 16 hours. After washing, the cells were stimulated with glucose, cytopiloyne, PMA and glimepiride. Total lipids were separated on a silica thin layer plate. DAG and cholesterol were visualized with iodine vapor and identified by their standards. (C) RIN-m5F cells were incubated with vehicle (Mock), cytopiloyne (CP, 3, 7 and 14 μM), PMA (1 μM) and 16.7 mM (HG). Membrane or cytosolic proteins were subjected to Western blot with anti-PKCα and anti-Actin antibodies. (D) RIN-m5F cells were incubated with vehicle (Mock), cytopiloyne (CP 7 μM) and PMA (1 μM). After lysis, total lystaes were subjected to Western blot with anti-PKCα, anti-phospho-PKCα and anti-Actin antibodies.
RIN-m5F cells were incubated with ^3H-myristic acid ([…]) for 16 hours. After washing, the cells were treated with glucose, cytopiloyne, PMA and glimepiride. Total lipids were extracted as previously described. Radioactive DAG was separated on a silica thin layer plate with the first developer of ethylacetate: acetic acid: triethylpentane (9:2:5) and the second developer of hexane: diethylether: methanol: acetic acid (90:20:3:2). The spot of DAG was visualized with iodine vapor and identified by DAG standard.

Row | SMILES | blood sugar lowering when dosed 60 min before insulin injection (STZ-treated C57BL mice) | aP2 expression ([1]; 5, 25 and 50 μM, 3T3-L1 cells) | adiponectin expression (adiponectin; 5, 25 and 50 μM, 3T3-L1 cells) | pancreatic islet structure after long-term treatment [2] | protection against islet atrophy ([2]; low dose 0.5 mgkg^−1 day^−1, db/db mice (FIG. 1F)) | up-regulation of insulin transcription relative to that by 16.7 mM glucose ([3]; 28 μM (FIGS. 4A-B)) [%] | insulin mRNA relative to L13 mRNA, fold ([3]; 28 μM, rat islet cells, 24 h) | level of cholesterol (RIN-m5F cells) | level of DAG (RIN-m5F cells) | aP2 expression, times of the control ([1]; mouse, 8 days, 10 μM) [times] | adiponectin expression level, times control levels (adiponectin; mouse, 8 days, 10 μM) [times] | pancreatic islet structure after long-term treatment ([2]; listed as Glimepiride) | insulin mRNA relative to L13 mRNA ([3]; 10 μM, rat islet cells, 24 h)
1 | CC#CC#CC#CC#CCCC(CO)O[C@@H]1O[C@H](CO)[C@@H](O)[C@H](O)[C@H]1O (stereo partly drawn) [cytopiloyne, 2-β-D-glucopyranosyloxy-1-hydroxytrideca-5,7,9,11-tetrayne] | little, if any, lowering effect on blood sugar | little effect on aP2 expression | slight reduction in adiponectin expression | much greater preservation of islet structure | protected against islet atrophy | 40 | around 2 times | not cholesterol | dose-dependently increased the level of DAG | – | – | – | –
2 | CCC1=C(C)CN(C(=O)NCCc2ccc(S(=O)(=O)NC(=O)N[C@H]3CC[C@H](C)CC3)cc2)C1=O [glimepiride, reference compound] | little, if any, lowering effect on blood sugar | – | – | sporadic islets | – | – | – | – | significantly increased the level of DAG | 31 | 9 | failed to provide such a protection | slightly decreased insulin transcription
